Test results from patent US20160177395A1, “BIOMARKERS FOR THE PREDICTION OF RENAL INJURY” (priority 2007, published 2016).
“And” between values parts separate entries of the source, which are not always exact repeats. Equal values may be shown once.

Tested on: kidney tissues of treated or untreated rats
Experiment: Real-time qRT-PCR of marker transcripts in kidney tissue panel, discovery stage (Table 22)
Assay type: in vivo, rat
Design: AI502869_DB71_seg0 normalized Real Time PCR expression: unit not given beside the values
Conditions: rat kidney, listed as CadCl
Description: Before RT preparation the RNA was treated with DNA-free (Ambion, cat. No. AM1906) DNase treatment and removal—according to manufacturer protocol. DNase procedure was repeated until no DNA is detected in a PCR reaction using the RNA samples.
The mixture is then incubated for 5 min at 65° C. and then quickly chilled on ice. Thereafter, 20 μl of 5× SuperscriptII first strand buffer (Invitrogen, Cat. No. Y00146), 9.6 μl 0.1M DTT (Invitrogen, Cat. No. Y00147) and 160 units RNasin (Promega, Cat. No. N251A) are added, and the mixture is incubated for 10 min at 25° C., followed by further incubation at 42° C. for 2 min. […] The resulting cDNA is diluted 1:20 in TE buffer (10 mM Tris pH=8, 1 mM EDTA pH=8).
cDNA (5 μl), prepared as described above, is used as a template in Real-Time PCR reactions using the SYBR Green I assay (PE Applied Biosystem) with specific primers in 100 nM concentration if not indicated otherwise and UNG Enzyme (Eurogentech or equal) Amplification is effected as follows: 50° C. for 2 min, 95° C. for 10 min, and then 40 cycles of 95° C. for 15 sec, followed by 60° C. for 1 min (if not indicated otherwise). Amplification step is followed by dissociation step. Detection is performed by using the PE Applied Biosystem SDS 7000. The cycle in which the reactions achieved a threshold level (Ct) of fluorescence is registered and is used to calculate the relative transcript quantity in the RT reactions. Non-detected samples are assigned Ct value of 41 and are calculated accordingly. The relative quantity is calculated using the equation Q=efficiencŷ-Ct. The efficiency of the PCR reaction is calculated from a standard curve, created by using serial dilutions of several reverse transcription (RT) reactions. To minimize inherent differences in the RT reaction, the resulting relative quantities are normalized to normalization factor calculated as follows: […]
The relative quantity (Q) of each housekeeping gene in each sample is calculated as described above. In order to calculate the “relative Q relative to MED” each Q for each HSKP gene is divided by the median quantity of this gene in all panel samples. To finally achieve the normalization factor of each sample the geometric mean of all four “relative Q relative to MED” was calculated. The normalization factor was then used for further calculations.
The markers of the present invention were tested with regard to their expression in a panel of kidney tissues samples from treated and control rats. Unless otherwise noted, all experimental data relates to the novel polynucleotides and proteins of the present invention, named according to the segment being tested (as expression was tested through RT-PCR as described). Tests were then performed as described in the “Materials and Experimental Procedures” section above.
The qRT-PCR measurements were normalized according to each samples normalization factor as described in “RT Preparation and Real-Time qRT-PCR Analysis” and further multiplied by a constant factor for ease of viewing.

[1] = day5, individual animals (F and M)
[2] = day28, individual animals (F and M)

[Cl][Cd][Cl] [Cadmium chloride]
AW919147_DB71_seg0 normalized Real Time PCR expression (day1, individual animals): 1 (2×) and 1.21 and 0.76 and 1.1 and 1.02
BI293562_DB71_seg2 normalized Real Time PCR expression (day1, individual animals): 0.36 and 0.4 and 0.61 and 0.5 and 0.51 and 0.39
H31045_DB71_seg5 normalized Real Time PCR expression (day1, individual animals): 1.97 and 0.39 (2×) and 0.19 (2×) and 0.18
H31799_DB71_seg23 normalized Real Time PCR expression (day1, individual animals): 1 (2×) and 1.24 and 0.91 and 0.9 and 1.15
H31883_DB71_seg13 normalized Real Time PCR expression (day1, individual animals): 0.73 and 0.63 and 0.87 and 0.65 and 0.71 and 0.78
H33998_DB71_seg19 normalized Real Time PCR [1]: 2 and 0.82 and 1.39 and 1.36 and 1.64
MUSCYCG1R_DB81_seg15-17 normalized Real Time PCR [1]: 1.72 and 1.13 and 1.2 and 0.97 and 1.15
RATLRFI_DB71_seg9 normalized Real Time PCR [1]: 0.35 and 0.31 and 0.17 and 0.18 and 0.29
RATRAB13X_DB71_seg11-13 normalized Real Time PCR [1]: 0.95 and 0.9 and 0.75 (2×) and 0.62
RNU24174_DB71_seg8 normalized Real Time PCR [1]: 0.33 and 0.27 and 0.12 (2×) and 0.13
W41270_DB81_seg11 normalized Real Time PCR [1]: 2.49 and 1.17 and 1.02 and 1.43 and 1.52
W64472_DB81_seg2 normalized Real Time PCR [1]: 1.65 and 0.78 and 2.23 and 1.89 and 1.63
W83813_DB81_seg27 normalized Real Time PCR [1]: 3.79 and 1.59 and 1.48 and 1.67 and 1.76
AA686189_DB71_seg6 normalized Real Time PCR expression (day5, individual animals): 0.47 and 0.29 and 0.39 and 0.5 and 0.38
AA799594_DB71_seg0 normalized Real Time PCR expression (day5, individual animals): 1.12 and 0.9 and 1.23 and 0.98 and 1.01
AA964541_DB71_seg0 normalized Real Time PCR expression (day5, individual animals): 0.29 and 0.27 and 0.42 (2×) and 0.41
AI045075_DB71_seg6 normalized Real Time PCR expression (day5, individual animals): 0.98 and 0.49 and 0.85 and 0.81 and 0.83
AI454051_DB71_seg0 normalized Real Time PCR expression (day5, individual animals): 1.54 and 1.35 and 0.84 and 0.68 and 0.92
AI502869_DB71_seg0 normalized Real Time PCR expression (day5, individual animals): 0.94 and 0.73 and 0.69 and 0.68 and 0.85
AW919147_DB71_seg0 normalized Real Time PCR expression (day5, individual animals): 1.06 and 1.86 and 1.3 and 0.94 and 1
BI293562_DB71_seg2 normalized Real Time PCR expression (day5, individual animals): 0.43 and 0.63 and 0.48 and 0.88 and 0.78
H31045_DB71_seg5 normalized Real Time PCR expression (day5, individual animals): 0.56 and 0.32 and 0.42 and 0.4 and 0.46
H31799_DB71_seg23 normalized Real Time PCR expression (day5, individual animals): 0.83 and 0.99 and 1.17 and 0.98 and 0.94
H31883_DB71_seg13 normalized Real Time PCR expression (day5, individual animals): 0.87 and 0.86 and 0.83 and 0.78 and 0.64
H33998_DB71_seg19 normalized Real Time PCR [2]: 1.26 and 0.59 and 0.43 and 0.45 and 0.26 and 0.41
MUSCYCG1R_DB81_seg15-17 normalized Real Time PCR [2]: 0.88 and 0.71 and 0.65 and 0.72 and 0.44 and 0.58
RATLRFI_DB71_seg9 normalized Real Time PCR [2]: 0.66 and 0.85 and 1.78 and 0.28 and 0.67 and 0.56
RATRAB13X_DB71_seg11-13 normalized Real Time PCR [2]: 1.37 and 0.92 and 0.96 and 1.11 and 1.08 and 0.88
RNU24174_DB71_seg8 normalized Real Time PCR [2]: 0.21 and 0.45 and 1.21 and 0.25 (2×) and 0.39
W41270_DB81_seg11 normalized Real Time PCR [2]: 0.86 and 0.55 and 0.83 and 0.33 and 0.27 and 0.39
W64472_DB81_seg2 normalized Real Time PCR [2]: 0.89 and 0.55 and 0.43 and 0.67 and 0.47 and 0.57
W83813_DB81_seg27 normalized Real Time PCR [2]: 0.95 and 0.64 and 0.46 (2×) and 0.34 and 0.53
AA686189_DB71_seg6 normalized Real Time PCR expression (day28, individual animals): 0.64 and 0.58 and 1.94 and 0.4 and 0.51 and 0.82
AA799594_DB71_seg0 normalized Real Time PCR expression (day28, individual animals): 1.14 and 0.88 and 0.37 and 0.66 and 0.77 and 0.83
AA964541_DB71_seg0 normalized Real Time PCR expression (day28, individual animals): 0.32 (2×) and 0.42 and 1.72 and 0.55 and 0.72
AI045075_DB71_seg6 normalized Real Time PCR expression (day28, individual animals): 1.72 and 1.15 and 0.86 and 0.75 and 0.63 and 0.71
AI454051_DB71_seg0 normalized Real Time PCR expression (day28, individual animals): 0.79 and 1.05 and 0.54 and 1.29 and 1.31 and 0.75
AI502869_DB71_seg0 normalized Real Time PCR expression (day28, individual animals): 0.73 and 1.22 and 0.44 and 2.47 and 2.93 and 1.18
AW919147_DB71_seg0 normalized Real Time PCR expression (day28, individual animals): 0.77 and 0.91 and 0.42 and 1.31 and 1.18 and 0.68
BI293562_DB71_seg2 normalized Real Time PCR expression (day28, individual animals): 0.4 and 0.81 and 2.59 and 0.72 and 1.35 and 0.31
H31045_DB71_seg5 normalized Real Time PCR expression (day28, individual animals): 2.88 and 0.83 and 0.57 and 2.23 and 2.41 and 2
H31799_DB71_seg23 normalized Real Time PCR expression (day28, individual animals): 1.59 and 0.94 and 0.67 and 1.05 and 1.02 and 0.76
H31883_DB71_seg13 normalized Real Time PCR expression (day28, individual animals): 0.97 and 1.02 and 0.86 (2×) and 0.95 and 0.8
